The results in this text go back to US10988478B1, “Pyrazolo[1,5a]pyrimidine derivatives as IRAK4 modulators” (Genentech, Inc., priority 2015, dated 2021).

Chain of human IRAK4 (Q9NWZ3 whole entry, the tested form may be a part): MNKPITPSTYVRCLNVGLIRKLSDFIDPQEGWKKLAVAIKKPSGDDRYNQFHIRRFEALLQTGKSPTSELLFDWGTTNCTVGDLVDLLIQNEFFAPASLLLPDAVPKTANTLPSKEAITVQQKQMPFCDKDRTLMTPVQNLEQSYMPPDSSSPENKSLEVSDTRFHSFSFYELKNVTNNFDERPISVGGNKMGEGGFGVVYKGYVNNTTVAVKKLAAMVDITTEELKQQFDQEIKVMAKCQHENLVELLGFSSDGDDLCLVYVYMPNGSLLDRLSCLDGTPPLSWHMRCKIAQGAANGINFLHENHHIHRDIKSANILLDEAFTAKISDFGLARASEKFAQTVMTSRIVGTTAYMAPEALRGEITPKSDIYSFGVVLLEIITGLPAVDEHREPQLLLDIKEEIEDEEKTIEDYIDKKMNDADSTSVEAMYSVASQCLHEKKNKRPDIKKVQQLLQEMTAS

In this experiment the target is human IRAK4 (Homo sapiens (Human), UniProt Q9NWZ3). The experiment in a line: IRAK4 kinase inhibition, Transcreener fluorescence polarization ADP assay. Particulars: recombinant full-length His6-IRAK4; 125 uM ATP; 90 min; Ki computed using ATP Km 642 uM. It counts as biochemical. The method, then:
Compounds were assayed for inhibition of human IRAK4 and IRAK1 catalytic activity using recombinant enzyme produced from insect cells. Full-length IRAK4 protein, carrying an N-terminal His6-Tag, was obtained from Life Technologies (Carlsbad, Calif., USA). The IRAK1 construct was produced internally and was comprised of IRAK1 residues Arg194 to Ser712, preceded by an NH2-terminal His6 tag and the coding sequence for glutathione-S-transferase.
For orientation: Fluorescence polarisation rises when a labelled molecule tumbles more slowly, as on binding a larger partner.
The Ki is a dissociation constant, usually derived from enzyme kinetics or from competition with a known ligand. Regarding `CC1(C)Cc2cc(NC(=O)c3cnn4cccnc34)c(N3CCN(CC(=O)NC4CC4)CC3)cc2O1` [Example 242, N-(6-(4-(2-(Cyclopropylamino)-2-oxoethyl)piperazin-1-yl)-2,2-dimethyl-2,3-dihydrobenzofuran-5-yl)pyrazolo[1,5-a]pyrimidine-3-carboxamide], the Ki worked out at 28 nM. Under `C[C@]1(CO)Cc2cc(NC(=O)c3cnn4cccnc34)c(C(F)(F)F)cc2O1` [Example 71, N-[(2R)-2-(Hydroxymethyl)-2-methyl-6-(trifluoromethyl)-3H-benzofuran-5-yl]pyrazolo[1,5-a]pyrimidine-3-carboxamide] stands 920 nM; under `CC1(C)Cc2cc(NC(=O)c3cnn4cccnc34)c(N3CCN(CC4CCC(=O)N4)CC3)cc2O1` (stereo not shown) [Example 468, N-(2,2-dimethyl-6-(4-((5-oxopyrrolidin-2-yl)methyl)piperazin-1-yl)-2,3-dihydrobenzofuran-5-yl)pyrazolo[1,5-a]pyrimidine-3-carboxamide], 5.1 nM; under `CC1(C)Cc2cc(NC(=O)c3cnn4cccnc34)c(OC3CN(CCO)C3)cc2O1` [Example 446, N-(6-((1-(2-hydroxyethyl)azetidin-3-yl)oxy)-2,2-dimethyl-2,3-dihydrobenzofuran-5-yl)pyrazolo[1,5-a]pyrimidine-3-carboxamide], 52 nM. Consider `CC1(C)Cc2cc(NC(=O)c3cnn4cccnc34)c(N3CCC(C(N)=O)CC3)cc2O1` [Example 531, N-[6-(4-carbamoyl-1-piperidyl)-2,2-dimethyl-3H-benzofuran-5-yl]pyrazolo[1,5-a]pyrimidine-3-carboxamide], for which the Ki is 3.2 nM.

As for `CC1(C)CNc2cc(NC(=O)c3cnn4cccnc34)c(N3CCOCC3)cc2O1` [Example 5, N-(2,2-Dimethyl-7-morpholino-3,4-dihydro-2H-benzo[b][1,4]oxazin-6-yl)pyrazolo[1,5-a]pyrimidine-3-carboxamide], the Ki worked out at 54 nM. For `C[C@@]1(CO)CCc2cc(NC(=O)c3cnn4cccnc34)c(N3CCOCC3)cc2O1` (single isomer, unassigned) [Example 436], the Ki stood at 10 nM. Regarding `C[C@@]1(CO)Cc2cc(NC(=O)c3cnn4cc(Cl)cnc34)c(N3CCN(CC(F)F)CC3)cc2O1` (single isomer, unassigned) [Example 169], the Ki was 2.5 nM. Consider `C[C@@H](O)[C@H](F)CN1Cc2cc(NC(=O)c3cnn4cccnc34)c(N3CCOCC3)cc2C1=O` [Example 562, N-(2-((2R,3R)-2-fluoro-3-hydroxybutyl)-6-morpholino-1-oxoisoindolin-5-yl)pyrazolo[1,5-a]pyrimidine-3-carboxamide], for which the Ki was 1.9 nM. Regarding `CC1(C)Cc2cc(NC(=O)c3cnn4cccnc34)c(N3C[C@@H]4[C@H](C3)[C@H]4C(N)=O)cc2O1` [Example 186, N-[6-[(1S,5R)-6-carbamoyl-3-azabicyclo[3.1.0]hexan-3-yl]-2,2-dimethyl-3H-benzofuran-5-yl]pyrazolo[1,5-a]pyrimidine-3-carboxamide], the Ki came to 15 nM. Under `C[C@]1(CO)Cc2cc(NC(=O)c3cnn4cccnc34)c(N3CCC(CO)CC3)cc2O1` [Example 129, (R)—N-(2-(Hydroxymethyl)-6-(4-(hydroxymethyl)piperidin-1-yl)-2-methyl-2,3-dihydrobenzofuran-5-yl)pyrazolo[1,5-a]pyrimidine-3-carboxamide] stands 3.2 nM; under `Cn1cc(COc2cc3c(cc2NC(=O)c2cnn4cccnc24)C[C@@](C)(O)CO3)cn1` (single isomer, unassigned) [Example 430], 130 nM. Under `CC1(C)Cc2cc(NC(=O)c3cnn4cccnc34)c(-c3cncc(C#N)c3)cc2O1` [Example 405, N-(6-(5-Cyanopyridin-3-yl)-2,2-dimethyl-2,3-dihydrobenzofuran-5-yl)pyrazolo[1,5-a]pyrimidine-3-carboxamide] stands 520 nM. Under `CC(C)(O)CN1Cc2cc(NC(=O)c3cnn4cccnc34)c(N3CCOCC3)cc2C1=O` [Example 176, N-[2-(2-hydroxy-2-methyl-propyl)-6-morpholino-1-oxo-isoindolin-5-yl]pyrazolo[1,5-a]pyrimidine-3-carboxamide] stands 51 nM; under `CC1(C)Cc2cc(NC(=O)c3cnn4cccnc34)c(N3CCCOCC3)cc2O1` [Example 117, N-(2,2-dimethyl-6-(1,4-oxazepan-4-yl)-2,3-dihydrobenzofuran-5-yl)pyrazolo[1,5-a]pyrimidine-3-carboxamide], 17 nM.

Regarding `O=C(Nc1cc2c(cc1N1CCOCC1)C(=O)N([C@@H]1CCC[C@@H]1CO)C2)c1cnn2cccnc12` [Example 565, N-(2-((1R,2S)-2-(hydroxymethyl)cyclopentyl)-6-morpholino-1-oxoisoindolin-5-yl)pyrazolo[1,5-a]pyrimidine-3-carboxamide], the Ki was determined as 94 nM. In the case of `CC1(C)Cc2cc(NC(=O)c3cnn4ccc(C[C@H]5CNC(=O)C5)nc34)c(C3CC3)cc2O1` [Example 513, (R)—N-(6-cyclopropyl-2,2-dimethyl-2,3-dihydrobenzofuran-5-yl)-5-((5-oxopyrrolidin-3-yl)methyl)pyrazolo[1,5-a]pyrimidine-3-carboxamide], the Ki came to 210 nM. As to `CNC(=O)[C@H]1[C@@H]2CN(c3cc4c(cc3NC(=O)c3cnn5cccnc35)CC(C)(C)O4)C[C@@H]21` [Example 182, N-[2,2-dimethyl-6-[(1S,5R)-6-(methylcarbamoyl)-3-azabicyclo[3.1.0]hexan-3-yl]-3H-benzofuran-5-yl]pyrazolo[1,5-a]pyrimidine-3-carboxamide], the Ki is 56 nM.

On to `C[C@@]1(O)CCCN(c2cc3c(cc2NC(=O)c2cnn4cccnc24)C[C@@](C)(CO)O3)CC1` (single isomer, unassigned) [Example 331], for which the Ki amounted to 12 nM.

On to `CC1(C)Cc2cc(NC(=O)c3cnn4cccnc34)c(N3CCC(C(O)C(F)(F)F)CC3)cc2O1` (stereo not shown) [Example 245, N-(2,2-Dimethyl-6-(4-(2,2,2-trifluoro-1-hydroxyethyl)piperidin-1-yl)-2,3-dihydrobenzofuran-5-yl)pyrazolo[1,5-a]pyrimidine-3-carboxamide], for which the Ki stood at 10 nM.

On to `CC1(C)Cc2cc(NC(=O)c3cnn4cccnc34)c(N3CCC(n4ccnc4)CC3)cc2O1` [Example 206, N-(6-(4-(1H-imidazol-1-yl)piperidin-1-yl)-2,2-dimethyl-2,3-dihydrobenzofuran-5-yl)pyrazolo[1,5-a]pyrimidine-3-carboxamide], for which the Ki is 3.4 nM.

Regarding `C[C@@H](N)CN1CCN(c2cc3c(cc2NC(=O)c2cnn4cccnc24)CC(C)(C)O3)CC1` [Example 477, N-[6-[4-[(2R)-2-Aminopropyl]piperazin-1-yl]-2,2-dimethyl-3H-benzofuran-5-yl]pyrazolo[1,5-a]pyrimidine-3-carboxamide], the Ki worked out at 35 nM. On to `CC1(C)Cc2cc(NC(=O)c3cnn4cccnc34)c(N3CCN(CC(N)=O)CC3)cc2O1` [Example 187, N-[6-[4-(2-amino-2-oxo-ethyl)piperazin-1-yl]-2,2-dimethyl-3H-benzofuran-5-yl]pyrazolo[1,5-a]pyrimidine-3-carboxamide], for which the Ki came to 2 nM.

Turning to `C[C@@]1(CO)Cc2cc(NC(=O)c3cnn4cccnc34)c(N3C[C@@H]4[C@H](C3)[C@H]4C(N)=O)cc2O1` [Example 414, N-((S)-6-((1R,5S,6S)-6-carbamoyl-3-azabicyclo[3.1.0]hexan-3-yl)-2-(hydroxymethyl)-2-methyl-2,3-dihydrobenzofuran-5-yl)pyrazolo[1,5-a]pyrimidine-3-carboxamide], the Ki amounted to 12 nM. Under `CC1(C)Cc2cc(NC(=O)c3cnn4cccnc34)c(N3CCC(c4cc[nH]n4)C3)cc2O1` (stereo not shown) [Example 192, N-[2,2-dimethyl-6-[3-(1H-pyrazol-3-yl)pyrrolidin-1-yl]-3H-benzofuran-5-yl]pyrazolo[1,5-a]pyrimidine-3-carboxamide] stands 44 nM. Under `CC1(C)Cc2cc(NC(=O)c3cnn4cccnc34)c(N3CCCC3CO)cc2O1` (stereo not shown) [Example 201, N-(6-(2-(hydroxymethyl)pyrrolidin-1-yl)-2,2-dimethyl-2,3-dihydrobenzofuran-5-yl)pyrazolo[1,5-a]pyrimidine-3-carboxamide] stands 28 nM; under `O=C(Nc1cc2c(cc1N1CCOCC1)C(=O)N(C[C@H]1C[C@H](O)C1)C2)c1cnn2cccnc12` [Example 262, N-[2-[(3-Hydroxycyclobutyl)methyl]-6-morpholino-1-oxo-isoindolin-5-yl]pyrazolo[1,5-a]pyrimidine-3-carboxamide], 10 nM. Under `C[C@@]1(CO)Cc2cc(NC(=O)c3cnn4cc(F)cnc34)c(N3CCN(CC(F)F)CC3)cc2O1` [Example 132, (S)—N-(6-(4-(2,2-Difluoroethyl)piperazin-1-yl)-2-(hydroxymethyl)-2-methyl-2,3-dihydrobenzofuran-5-yl)-6-fluoropyrazolo[1,5-a]pyrimidine-3-carboxamide] stands 4.8 nM; under `Cc1cnc2c(C(=O)Nc3cc4c(cc3N3CCC(CO)CC3)OC(C)(C)C4)cnn2c1` [Example 12, N-(6-(4-(Hydroxymethyl)piperidin-1-yl)-2,2-dimethyl-2,3-dihydrobenzofuran-5-yl)-6-methylpyrazolo[1,5-a]pyrimidine-3-carboxamide], 2 nM; under `O=C(Nc1cc2c(cc1N1CCOCC1)C(=O)N(CCC1COC1)C2)c1cnn2cccnc12` [Example 252, N-[6-Morpholino-2-[2-(oxetan-3-yl)ethyl]-1-oxo-isoindolin-5-yl]pyrazolo[1,5-a]pyrimidine-3-carboxamide], 5 nM. Turning to `CC1(CO)Cc2cc(NC(=O)c3cnn4cccnc34)c(N3CCC(n4ccnc4)CC3)cc2O1` (single isomer, unassigned) [Example 344, N-(6-(4-(1H-imidazol-1-yl)piperidin-1-yl)-2-(hydroxymethyl)-2-methyl-2,3-dihydrobenzofuran-5-yl)pyrazolo[1,5-a]pyrimidine-3-carboxamide], the Ki was 8 nM.
